Patent US20260022142A1, “MACROCYCLIC IMMUNOMODULATORS” (Bristol-Myers Squibb Company, priority 2022, published 2026)
Bridge positions count the residues as written; N and C are the ends. Square brackets hold non-standard residues; d marks the D form. Peptide text beside a SMILES is read from it. * marks the point of attachment. ξ: configuration not given here. Bip = N[C@@H](Cc1ccc(-c2ccccc2)cc1)C(=O)O; Tyr(3-F) = N[C@@H](Cc1ccc(O)c(F)c1)C(=O)O; Tyr(3-Me) = Cc1cc(C[C@H](N)C(=O)O)ccc1O; Phe(3-Me) = Cc1cccc(C[C@H](N)C(=O)O)c1; Val(3-OH) = CC(C)(O)[C@H](N)C(=O)O; Cha = N[C@@H](CC1CCCCC1)C(=O)O; hSer = N[C@@H](CCO)C(=O)O; Carboxymethyl = O=C(O)C*; Orn = NCCC[C@H](N)C(=O)O; Aun = NCCCCCCCCCCC(=O)O; Dab = NCC[C@H](N)C(=O)O; Dap = NC[C@H](N)C(=O)O; ξS = NC(CO)C(=O)O

Molecular target: T1, PD-1/PD-L1 interaction (PE-labeled human PD-L1-Ig binding to Jurkat cell line over-expressing human PD-1) (Homo sapiens, UniProt Q15116)
T1 construct: expressed in transfected cells; host or cells: Jurkat
T1 sequence (Q15116 25-288): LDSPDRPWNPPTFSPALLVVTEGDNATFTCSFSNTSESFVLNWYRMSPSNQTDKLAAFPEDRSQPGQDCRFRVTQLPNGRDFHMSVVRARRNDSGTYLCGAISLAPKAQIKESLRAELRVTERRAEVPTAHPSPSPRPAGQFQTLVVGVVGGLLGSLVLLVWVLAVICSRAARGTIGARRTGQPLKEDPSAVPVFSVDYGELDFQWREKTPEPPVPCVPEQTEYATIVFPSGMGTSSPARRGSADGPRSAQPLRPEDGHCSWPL
Experiment: Jurkat-PD-1 Cell Binding High-Content Screening Assay (CBA)
Assay type: cell-based
Conditions: Jurkat cell line over-expressing human PD-1; PE-labeled PD-L1-Ig 20 nM final; read-out: Jurkat hPD1-PDL1 IC50
Summary of the method: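 Binding of fluorescent PD-L1-Ig (20 nM final) to Jurkat-PD-1 cells was measured by automated imaging after 1 h, following a 2 h compound pre-treatment at 37° C.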

Row | Compound | IC50 [µM]
1 | Cc1cccc(C[C@@H]2NC(=O)[C@H](CC(=O)O)NC(=O)[C@H](Cc3ccc(OCC(=O)O)cc3)NC(=O)[C@H](CN)NC(=O)CSC[C@@H](C(=O)N[C@@H](CCN)C(=O)NCCCCCCCCCCC(=O)O)NC(=O)C(CO)NC(=O)[C@H](C(C)C)NC(=O)[C@H](CC3CCCCC3)NC(=O)[C@H](CCN)NC(=O)[C@@H](CC(C)C)NC(=O)[C@H](CCCN)NC(=O)[C@H](Cc3ccc(O)cc3)NC(=O)[C@H](Cc3ccc(-c4ccccc4)cc3)NC(=O)[C@H](C(C)C)NC2=O)c1 (stereo partly drawn) [Compound 2098] ({CH2CO}-[Dap]Y(Carboxymethyl)D[Phe(3-Me)]V[Bip]Y[Orn][dL][Dab][Cha]V[ξS]C[Dab][Aun]-OH; thioether N-14) | 0.0534
2 | Cc1cccc(C[C@@H]2NC(=O)[C@H](CC(=O)O)NC(=O)[C@H](Cc3ccc(OCC(=O)O)cc3)NC(=O)[C@H](CN)NC(=O)CSC[C@@H](C(=O)N[C@@H](CCN)C(=O)NCCCCCCCCCCC(=O)O)NC(=O)[C@H](CCO)NC(=O)[C@H](C(C)C)NC(=O)[C@H](CC3CCCCC3)NC(=O)[C@H](CCN)NC(=O)[C@@H](CC(C)C)NC(=O)[C@H](CCCN)NC(=O)[C@H](Cc3ccc(OCC(=O)O)cc3)NC(=O)[C@H](Cc3ccc(-c4ccccc4)cc3)NC(=O)[C@H](C(C)C)NC2=O)c1 [Compound 2099] ({CH2CO}-[Dap]Y(Carboxymethyl)D[Phe(3-Me)]V[Bip]Y(Carboxymethyl)[Orn][dL][Dab][Cha]V[hSer]C[Dab][Aun]-OH; thioether N-14) | 0.018
3 | Cc1cccc(C[C@@H]2NC(=O)[C@H](CC(=O)O)NC(=O)[C@H](Cc3ccc(OCC(=O)O)cc3)NC(=O)[C@H](CN)NC(=O)CSC[C@@H](C(=O)N[C@@H](CCN)C(=O)NCCCCCCCCCCC(=O)O)NC(=O)[C@H](CCO)NC(=O)[C@H](C(C)C)NC(=O)[C@H](CC3CCCCC3)NC(=O)[C@H](CCN)NC(=O)[C@@H](CC(C)C)NC(=O)[C@H](CCCN)NC(=O)[C@H](Cc3ccc(OCC(=O)O)cc3)NC(=O)[C@H](Cc3ccc(-c4ccccc4)cc3)NC(=O)[C@H](Cc3ccc(O)cc3)NC2=O)c1 [Compound 2100] ({CH2CO}-[Dap]Y(Carboxymethyl)D[Phe(3-Me)]Y[Bip]Y(Carboxymethyl)[Orn][dL][Dab][Cha]V[hSer]C[Dab][Aun]-OH; thioether N-14) | 0.0139
4 | Cc1cccc(C[C@@H]2NC(=O)[C@H](CC(=O)O)NC(=O)[C@H](Cc3ccc(OCC(=O)O)cc3)NC(=O)[C@H](CN)NC(=O)CSC[C@@H](C(=O)N[C@@H](CCN)C(=O)NCCCCCCCCCCC(=O)O)NC(=O)[C@H](CCO)NC(=O)[C@H](C(C)C)NC(=O)[C@H](CC3CCCCC3)NC(=O)[C@H](CCN)NC(=O)[C@@H](CC(C)C)NC(=O)[C@H](CCCN)NC(=O)[C@H](Cc3ccc(OCC(=O)O)cc3)NC(=O)[C@H](Cc3ccc(-c4ccccc4)cc3)NC(=O)[C@H](Cc3ccc(OCC(=O)O)cc3)NC2=O)c1 [Compound 2101] ({CH2CO}-[Dap]Y(Carboxymethyl)D[Phe(3-Me)]Y(Carboxymethyl)[Bip]Y(Carboxymethyl)[Orn][dL][Dab][Cha]V[hSer]C[Dab][Aun]-OH; thioether N-14) | 0.0162
5 | Cc1cccc(C[C@@H]2NC(=O)[C@H](CC(=O)O)NC(=O)[C@H](Cc3ccc(OCC(=O)O)cc3)NC(=O)[C@H](CN)NC(=O)CSC[C@@H](C(=O)N[C@@H](CCN)C(=O)NCCCCCCCCCCC(=O)O)NC(=O)[C@H](CCO)NC(=O)[C@H](C(C)C)NC(=O)[C@H](CC3CCCCC3)NC(=O)[C@H](CCN)NC(=O)[C@@H](CC(C)C)NC(=O)[C@H](CCCN)NC(=O)[C@H](Cc3ccc(O)cc3)NC(=O)[C@H](Cc3ccc(-c4ccccc4)cc3)NC(=O)[C@H](Cc3ccc(OCC(=O)O)cc3)NC2=O)c1 [Compound 2102] ({CH2CO}-[Dap]Y(Carboxymethyl)D[Phe(3-Me)]Y(Carboxymethyl)[Bip]Y[Orn][dL][Dab][Cha]V[hSer]C[Dab][Aun]-OH; thioether N-14) | 0.0291
6 | CC(C)C[C@H]1NC(=O)[C@H](CCCN)NC(=O)[C@H](Cc2ccc(O)cc2)NC(=O)[C@H](Cc2ccc(-c3ccccc3)cc2)NC(=O)[C@H](Cc2ccc(O)cc2)NC(=O)[C@H](Cc2ccc(O)c(F)c2)NC(=O)[C@H](CC(=O)O)NC(=O)[C@H](Cc2ccc(OCC(=O)O)cc2)NC(=O)[C@H](CCCNC(=N)N)NC(=O)CSC[C@@H](C(=O)N[C@@H](CCN)C(=O)NCCCCCCCCCCC(=O)O)NC(=O)[C@H]([C@@H](C)O)NC(=O)[C@H](C(C)C)NC(=O)[C@H](CC2CCCCC2)NC(=O)[C@H](CCN)NC1=O [Compound 2103] ({CH2CO}-RY(Carboxymethyl)D[Tyr(3-F)]Y[Bip]Y[Orn][dL][Dab][Cha]VTC[Dab][Aun]-OH; thioether N-14) | 0.0699
7 | Cc1cc(C[C@@H]2NC(=O)[C@H](CC(=O)O)NC(=O)[C@H](Cc3ccc(OCC(=O)O)cc3)NC(=O)[C@H](CCCNC(=N)N)NC(=O)CSC[C@@H](C(=O)N[C@@H](CCN)C(=O)NCCCCCCCCCCC(=O)O)NC(=O)[C@H]([C@@H](C)O)NC(=O)[C@H](C(C)C)NC(=O)[C@H](CC3CCCCC3)NC(=O)[C@H](CCN)NC(=O)[C@@H](CC(C)C)NC(=O)[C@H](CCCN)NC(=O)[C@H](Cc3ccc(O)cc3)NC(=O)[C@H](Cc3ccc(-c4ccccc4)cc3)NC(=O)[C@H](Cc3ccc(O)cc3)NC2=O)ccc1O [Compound 2104] ({CH2CO}-RY(Carboxymethyl)D[Tyr(3-Me)]Y[Bip]Y[Orn][dL][Dab][Cha]VTC[Dab][Aun]-OH; thioether N-14) | 0.0223
8 | CC(C)C[C@H]1NC(=O)[C@H](CCCN)NC(=O)[C@H](Cc2ccc(OCC(=O)O)cc2)NC(=O)[C@H](Cc2ccc(-c3ccccc3)cc2)NC(=O)[C@H](Cc2ccc(O)cc2)NC(=O)[C@H](Cc2ccc(O)c(F)c2)NC(=O)[C@H](CC(=O)O)NC(=O)[C@H](Cc2ccc(OCC(=O)O)cc2)NC(=O)[C@H](CCCNC(=N)N)NC(=O)CSC[C@@H](C(=O)N[C@@H](CCN)C(=O)NCCCCCCCCCCC(=O)O)NC(=O)[C@H]([C@@H](C)O)NC(=O)[C@H](C(C)C)NC(=O)[C@H](CC2CCCCC2)NC(=O)[C@H](CCN)NC1=O [Compound 2105] ({CH2CO}-RY(Carboxymethyl)D[Tyr(3-F)]Y[Bip]Y(Carboxymethyl)[Orn][dL][Dab][Cha]VTC[Dab][Aun]-OH; thioether N-14) | 0.113
9 | Cc1cc(C[C@@H]2NC(=O)[C@H](CC(=O)O)NC(=O)[C@H](Cc3ccc(OCC(=O)O)cc3)NC(=O)[C@H](CCCNC(=N)N)NC(=O)CSC[C@@H](C(=O)N[C@@H](CCN)C(=O)NCCCCCCCCCCC(=O)O)NC(=O)[C@H]([C@@H](C)O)NC(=O)[C@H](C(C)C)NC(=O)[C@H](CC3CCCCC3)NC(=O)[C@H](CCN)NC(=O)[C@@H](CC(C)C)NC(=O)[C@H](CCCN)NC(=O)[C@H](Cc3ccc(OCC(=O)O)cc3)NC(=O)[C@H](Cc3ccc(-c4ccccc4)cc3)NC(=O)[C@H](Cc3ccc(O)cc3)NC2=O)ccc1O [Compound 2106] ({CH2CO}-RY(Carboxymethyl)D[Tyr(3-Me)]Y[Bip]Y(Carboxymethyl)[Orn][dL][Dab][Cha]VTC[Dab][Aun]-OH; thioether N-14) | 0.0159
10 | CC(C)C[C@H]1NC(=O)[C@H](CCCN)NC(=O)[C@H](Cc2ccc(OCC(=O)O)cc2)NC(=O)[C@H](Cc2ccc(-c3ccccc3)cc2)NC(=O)[C@H](Cc2ccc(O)cc2)NC(=O)[C@H](Cc2ccc(O)c(F)c2)NC(=O)[C@H](CC(=O)O)NC(=O)[C@H](Cc2ccc(OCC(=O)O)cc2)NC(=O)[C@H](CN)NC(=O)CSC[C@@H](C(=O)N[C@@H](CCN)C(=O)NCCCCCCCCCCC(=O)O)NC(=O)[C@H]([C@@H](C)O)NC(=O)[C@H](C(C)C)NC(=O)[C@H](CC2CCCCC2)NC(=O)[C@H](CCN)NC1=O [Compound 2107] ({CH2CO}-[Dap]Y(Carboxymethyl)D[Tyr(3-F)]Y[Bip]Y(Carboxymethyl)[Orn][dL][Dab][Cha]VTC[Dab][Aun]-OH; thioether N-14) | 0.116
11 | Cc1cc(C[C@@H]2NC(=O)[C@H](CC(=O)O)NC(=O)[C@H](Cc3ccc(OCC(=O)O)cc3)NC(=O)[C@H](CN)NC(=O)CSC[C@@H](C(=O)N[C@@H](CCN)C(=O)NCCCCCCCCCCC(=O)O)NC(=O)[C@H]([C@@H](C)O)NC(=O)[C@H](C(C)C)NC(=O)[C@H](CC3CCCCC3)NC(=O)[C@H](CCN)NC(=O)[C@@H](CC(C)C)NC(=O)[C@H](CCCN)NC(=O)[C@H](Cc3ccc(OCC(=O)O)cc3)NC(=O)[C@H](Cc3ccc(-c4ccccc4)cc3)NC(=O)[C@H](Cc3ccc(O)cc3)NC2=O)ccc1O [Compound 2108] ({CH2CO}-[Dap]Y(Carboxymethyl)D[Tyr(3-Me)]Y[Bip]Y(Carboxymethyl)[Orn][dL][Dab][Cha]VTC[Dab][Aun]-OH; thioether N-14) | 0.021
12 | Cc1cccc(C[C@@H]2NC(=O)[C@H](CC(=O)O)NC(=O)[C@H](Cc3ccc(OCC(=O)O)cc3)NC(=O)[C@H](CCCNC(=N)N)NC(=O)CSC[C@@H](C(=O)N[C@@H](CCN)C(=O)NCCCCCCCCCCC(=O)O)NC(=O)[C@H]([C@@H](C)O)NC(=O)[C@H](C(C)C)NC(=O)[C@H](CC3CCCCC3)NC(=O)[C@H](CCN)NC(=O)[C@@H](CC(C)C)NC(=O)[C@H](CCCN)NC(=O)[C@H](Cc3ccc(OCC(=O)O)cc3)NC(=O)[C@H](Cc3ccc(-c4ccccc4)cc3)NC(=O)[C@H](C(C)(C)O)NC2=O)c1 [Compound 2109] ({CH2CO}-RY(Carboxymethyl)D[Phe(3-Me)][Val(3-OH)][Bip]Y(Carboxymethyl)[Orn][dL][Dab][Cha]VTC[Dab][Aun]-OH; thioether N-14) | 0.0222
13 | Cc1cccc(C[C@@H]2NC(=O)[C@H](CC(=O)O)NC(=O)[C@H](Cc3ccc(OCC(=O)O)cc3)NC(=O)[C@H](CCCNC(=N)N)NC(=O)CSC[C@@H](C(=O)N[C@@H](CCN)C(=O)NCCCCCCCCCCC(=O)O)NC(=O)[C@H](CO)NC(=O)[C@H](C(C)C)NC(=O)[C@H](CC3CCCCC3)NC(=O)[C@H](CCN)NC(=O)[C@@H](CC(C)C)NC(=O)[C@H](CCCN)NC(=O)[C@H](Cc3ccc(OCC(=O)O)cc3)NC(=O)[C@H](Cc3ccc(-c4ccccc4)cc3)NC(=O)[C@H](C(C)(C)O)NC2=O)c1 [Compound 2110] ({CH2CO}-RY(Carboxymethyl)D[Phe(3-Me)][Val(3-OH)][Bip]Y(Carboxymethyl)[Orn][dL][Dab][Cha]VSC[Dab][Aun]-OH; thioether N-14) | 0.0241
